Here are results for 8 compounds from patent publication EP0042348A1, “Olivacine derivatives and their therapeutical use” (priority 1980, dated 1981).

A word on the ILS: it is the gain in survival time of treated over control animals, in per cent. A low value points to a small benefit in survival.

Data set [1] relates to cellules L1210. Put plainly: In vitro growth inhibition of L1210 cells (48 h culture). The settings on record: for diminution de la cytotoxicité (facteur): fold decrease on quaternisation, versus the non-quaternised base; for pIC50: read-out: DI50 (Dose qui réduit de 50 % la croissance des cellules L1210).
Data set [2] in a line: Toxicity in mice after a single i.p. injection (maximal never-lethal dose). The data set is classed as in vivo, souris. The settings on record: for augmentation de la toxicité (facteur): fold increase on quaternisation; for DL0 (i.p.): as printed in the compound cell of the dose-response table; for DL0 (Dose maximale jamais mortelle): mice; for toxicités générales (facteur d'augmentation): change on hydroxylation at position 10 of the named parent. The text has this:
(§1) En pratique, on a utilisé des souris ayant reçu par voie intrapéritonéale un inoculum de cellules de leucémie L 1210 et ayant été, pour la moitié d'entre elles, soumises 24 heures après ladite inoculation tumorale à une injection intrapéritonéale d'une dose unique de l'un des composés à tester; l'autre moitié des souris a reçu une injection d'un volume identique d'un solvant inactif et servait de série témoin. On a réparti les souris au hasard dans chaque série expérimentale. Une première expérimentation de routine a permis de déterminer la mortalité par toxicité et de fixer ainsi les doses infra-létales.
On a ainsi pu déterminer la mortalité par toxicité sous l'effet d'une injection unique de l'un des composés à différentes doses (doses infra-létales DL 50 et DL 100) et évaluer le taux de survie du groupe d'animaux auxquels on n'avait injecté qu'une dose infra-létale d'un composé selon l'invention.
Pour l'évaluation de l'activité thérapeutique des composés selon l'invention, on a exprimé les doses desdits composés en les rapportant à la dose infra-létale 30 jours, que l'on a posée égale à 1. Cette dose infra-létale s'est en effet avérée plus facile à déterminer pour les composés de l'invention que la DL 10, dont elle est d'ailleurs très voisine et qui est habituellement prise comme référence pour l'évaluation de l'activité thérapeutique de composés à effet antitumoral (voir H.E. Skipper et coll., ouvrages cités).

In data set [3] the test system is leucémie L 1210. The experiment in a line: Antitumour effect in DBA/2 mice inoculated i.p. with 10^5 L1210 leukaemia cells, single i.p. injection 24 h later. The settings on record: for propriétés antitumorales: change on hydroxylation at position 10 of the named parent; for propriétés antitumorales chez l'animal (facteur d'accroissement): fold increase on methoxylation at position 10 of the named parent; for effet thérapeutique antitumoral: change on quaternisation. The format is in vivo, souris.
Description: as §1
Conformément à la convention en usage dans ce domaine, on considérait comme guéris les animaux qui survivaient plus de 45 jours après l'inoculation de cellules tumorales.
On a calculé le taux de survie à partir d'une analyse statistique des résultats expérimentaux, par comparaison avec les résultats obtenus avec la série témoin, selon les méthodes bien connues de Mann-Whitey et de Wilcoxon; le pourcentage de cellules leucémiques tuées par le traitement réalisé était calculé par la méthode décrite par H.E.Skipper et coll. dans les articles cités plus haut, en prenant pour base, suivant le cas, soit l'augmentation de la survie moyenne en l'absence de survivants soit le pourcentage de survivants.
[…] Après 24 heures, on a fait à une moitié de ces souris une injection unique par voie intrapéritonéale d'une dose variable du composé respectif à tester (éventuellement mis au préalable sous la forme de l'un de ses sels hydrosolubles, si nécessaire), tandis qu'on injectait par la même voie à l'autre moitié des souris un même volume de solvant; cette dernière moitié du groupe de souris servait donc de série témoin. On a réparti les souris au hasard dans chaque série expérimentale.

Where [4] appears, read: versus the non-quaternised base.
[5] abbreviates: dose 0,01 of DL0, controls 9,3 ± 0,5 days, 15 mice.
[6] abbreviates: dose 0,1 of DL0, controls 9,3 ± 0,5 days, 15 mice.
The mark [7] stands for this setting: dose 0,01 of DL0, controls 9,7 ± 0,9 days, 10 mice.
Where [8] appears, read: dose 0,05 of DL0, controls 9,3 ± 0,5 days, 15 mice.
Setting [9] is: dose 0,5 of DL0, controls 9,3 ± 0,5 days, 15 mice.
Setting [10] is: dose 0,5 of DL0, controls 9,7 ± 0,9 days, 10 mice.
Where [11] appears, read: dose 0,8 of DL0, single i.p., ILS = T/C x 100.
Where [12] appears, read: dose 1 of DL0, controls 9,3 ± 0,5 days, 15 mice.
Setting [13] is: dose 0,005 of DL0, controls 9,3 ± 0,5 days, 15 mice.
[14] abbreviates: dose 0,1 of DL0, controls 9,2 days, 15 mice.
Setting [15] is: dose 0,02 of DL0, controls 9,7 ± 0,9 days, 10 mice.
[16] abbreviates: dose 0,02 of DL0, controls 9,2 days, 15 mice.
The mark [17] stands for this setting: dose 0,5 of DL0, controls 9,2 days, 15 mice.
Setting [18] is: dose 1 of DL0, controls 9,7 ± 0,9 days, 10 mice.
Setting [19] is: dose 1 of DL0, controls 9,2 days, 15 mice.

pIC50: −log10 of the molar value. Where two headings read alike, the source gives them in different places.

As to “Acétate de 4-méthyl 10-méthoxy olivacinium”, in data set [1], the “diminution de la cytotoxicité (facteur)” value was 1,3. For the same compound, the “augmentation de la toxicité (facteur)” value in data set [2] (setting [4]) is recorded as 1,5.
For the compound `CCN(CC)CC[n+]1ccc2c(C)c3[nH]c4ccc(O)cc4c3cc2c1C` [4-β-diéthylaminoéthyl 10-OH olivacinium (acétate)], the pIC50 in data set [1] (Mus musculus, L1210, 48 h) was 6.63. Besides, in data set [2], the “DL0 (i.p.)” value was 4-β -diéthyl-aminoéthyl 10-hydroxy olivacinium (acétate) DL0 (i.p.) = 100 mg. In data set [2], the “DL0 (Dose maximale jamais mortelle)” value is reported as 125 mg/kg. Also, the “% de cellules tumorales tuées” value in data set [3] (setting [5]) was 99%; in data set [3] (setting [6]), 99,997%; in data set [3] (setting [7]) it was 97%; in data set [3] (setting [8]), 99,8%; in data set [3] (setting [9]) it was “≃99,999%”; in data set [3] (setting [10]), 99,98%. Moreover, the “% de cellules tumorales tuées” value in data set [3] (setting [12]) is on record as “≃99,999%”; in data set [3] (setting [13]) it was 99%. Further, the ILS in data set [3] (setting [5]) amounted to 128%; in data set [3] (setting [6]), 162%; in data set [3] (setting [7]), 120%; in data set [3] (setting [8]), 136%; in data set [3] (setting [9]) it was 240%; in data set [3] (setting [10]), 150%. Moreover, the results for the ILS in data set [3] (setting [11]), in data set [3] (setting [12]) and in data set [3] (setting [13]) were 182%, 182% and 127%, respectively. The “survie moyenne en jours des souris traitées” value in data set [3] (setting [5]) is 11,9 ± 1,1 jours; in data set [3] (setting [6]), 15,1 ± 1,4 jours; in data set [3] (setting [7]), 11,6 ± 1,1 jours; in data set [3] (setting [8]) it was 12,7 ± 0,4 jours; in data set [3] (setting [9]) it was 22,3 ± 4,4 jours; in data set [3] (setting [10]), 14,5 ± 2 jours. For the same compound, the “survie moyenne en jours des souris traitées” value is on record as 16,9 ± 3,7 jours in data set [3] (setting [12]) and 11,8 ± 0,8 jours in data set [3] (setting [13]). Moreover, the survivants in data set [3] (setting [5]) is on record as 0/15; in data set [3] (setting [6]) it was 0/15; in data set [3] (setting [7]) it was 0/10; in data set [3] (setting [8]) it was 1/15; in data set [3] (setting [9]), 1/15; in data set [3] (setting [10]) it was 0/10. Further, the survivants is 4/15 in data set [3] (setting [12]) and 0/15 in data set [3] (setting [13]). For the same compound, the “survivants sur 15” value in data set [3] (dose 0,8 of DL0, single i.p., out of 15 mice) was found to be 4.
As to `COc1ccc2[nH]c3c(C)c4ccnc(C)c4cc3c2c1` [10-méthoxy olivacine, reference compound], the pIC50 in data set [1] (Mus musculus, L1210, 48 h) was 5.96. For the same compound, the “DL0 (Dose maximale jamais mortelle)” value in data set [2] is 150 mg/kg. In data set [3] (dose 0,66 of DL0, single i.p., ILS = T/C x 100), this compound displayed an ILS of 147%.
For the compound Acétate de 4-méthyl olivacinium, the “diminution de la cytotoxicité (facteur)” value in data set [1] was 1,4. Also, the “augmentation de la cytotoxicité (facteur)” value in data set [1] (fold increase on hydroxylation at position 10 of the named parent) came to 4. Moreover, the “toxicités générales (facteur d'augmentation)” value in data set [2] is listed as “ne varient pas”. In addition, the “augmentation de la toxicité (facteur)” value in data set [2] (setting [4]) is given as 3,3. In data set [3], the propriétés antitumorales result is on record as “fait par contre apparaître des propriétés antitumorales” and the “propriétés antitumorales chez l'animal (facteur d'accroissement)” value is given as 1,7.
On to `Cc1nccc2c(C)c3[nH]c4ccccc4c3cc12` [olivacine], for which the “toxicités générales (facteur d'augmentation)” value in data set [2] worked out at 5. In data set [3], the propriétés antitumorales result is listed as “ne modifie que peu”, the “effet thérapeutique antitumoral” value was “disparition de l'effet thérapeutique antitumoral” and the “propriétés antitumorales chez l'animal (facteur d'accroissement)” value is listed as 1,3.
For `Cc1nccc2c(C)c3[nH]c4ccc(O)cc4c3cc12` [10-hydroxy olivacine], the pIC50 in data set [1] (Mus musculus, L1210, 48 h) is 7.70. In data set [2], the “DL0 (Dose maximale jamais mortelle)” value is listed as 50 mg/kg. This compound also displayed an ILS in data set [3] (setting [11]) of 139%.
Regarding “Acétate de 4-méthyl 10-hydroxy olivacinium”, the “diminution de la cytotoxicité (facteur)” value was 28,1 in data set [1] and approximately 30 in data set [1] (listed as 10-hydroxy olivacine quaternarisée). Moreover, in data set [1] (L1210 cells, versus controls, after 48 h of culture), the pIC50 was 6.25. Moreover, the “diminution de la toxicité (facteur)” value in data set [2] (fold decrease on quaternisation, versus the non-quaternised base) is 2. Besides, in data set [2], the “DL0 (Dose maximale jamais mortelle)” value amounted to 100 mg/kg. Also, the “effet thérapeutique antitumoral” value in data set [3] is “n'est pas modifiée”. For the same compound, the ILS in data set [3] (dose 1 of DL0, single i.p., ILS = T/C x 100) was determined as 155%.
Consider `Cc1nccc2c(C)c3[nH]c4ccc(O)cc4c3cc12` [10-hydroxy olivacine (acétate)], for which, in data set [2], the “DL0 (i.p.)” value was 10-hydroxy olivacine (acétate) DL0(i.p.) = 50 mg. For the same compound, the ILS result was “non significatif” in data set [3] (setting [14]); “non significatif” in data set [3] (setting [15]); “non significatif” in data set [3] (setting [16]); “non significatif” in data set [3] (setting [17]); 148% in data set [3] (setting [18]); “non significatif” in data set [3] (setting [19]). Moreover, the “survie moyenne en jours des souris traitées” value was 10,9 jours in data set [3] (setting [14]); 10,5 ± 0,8 jours in data set [3] (setting [15]); 9,6 jours in data set [3] (setting [16]); 12,1 jours in data set [3] (setting [17]); 14,4 ± 1,3 jours in data set [3] (setting [18]); 11,8 jours in data set [3] (setting [19]). The survivants is 0/15 in data set [3] (setting [14]); 0/10 in data set [3] (setting [15]); 0/15 in data set [3] (setting [16]); 0/15 in data set [3] (setting [17]); 2/10 in data set [3] (setting [18]); 0/15 in data set [3] (setting [19]). In data set [3] (setting [18]), the “% de cellules tumorales tuées” value is 98,98%.
